In data set [1] the test system is A375. Briefly: Cytotoxicity MTT assay, A375. In kind it is cell-based. The method, then:
(§1) In order to determine the cytotoxicity towards various cancer cell lines, MTT and crystal violet (CV) assays were carried out. The MTT essay takes place as specified by T. Mosmann [T. Mosmann, J. Immunol. Methods, 1983, 65, 55], and the CV test takes place as specified by D. A. Flick et al. [D. A. Flick, G. E. Gifford, J. Immunol. Methods, 1984, 68, 167].
(§2) In these tests, the percentage of dead cells was analysed on the basis of the concentration of the inhibitors. The obtained IC50 value indicates the concentration of a particular inhibitor at which 50% of the analysed cells die off.
(§3) The proportion of living cells was determined by the MTT assay (3-(4,5-dimethylthiazolyl-2)-2,5-diphenyltetrazoliumbromide) and the crystal violet (CV) assay. In the MTT assay, the presence of NADH and NADPH is established. These two compounds are characteristic metabolism products in a functioning respiratory chain. NADH and NADPH reduce the MTT dye, thus leading to a change in colour, which can be measured and is thus directly proportional to the number of living cells.
(§4) Three skin cancer cell lines (A375, B16, B16F10) and three colon cancer cell lines (CT26CL25, HCT116, SW480) were analysed. Primary fibroblasts from human lung tissue (MRC-5) were used as an example of healthy cells and thus as a negative control.
(§5) The top value for each cell represents the IC50 value in the MTT assay, and the bottom value represents the IC50 value in the CV assay (crystal violet).

The test system of data set [2] is various cancer cell lines. Briefly: Cytotoxicity tests on cancer cell lines (summary in words). As to conditions: comparison with phenyl-based compounds. As to the method: as §1, §2, §4
The test system of data set [3] is CT26CL25. Briefly: Cytotoxicity crystal violet (CV) assay, CT26CL25. Particulars: CV assay (bottom value). It is filed as cell-based. As to the method:
as §1, §2
(§6) Meanwhile, in the crystal violet assay, the crystal violet dye can only diffuse through the perforated cell membranes of dead cells. In this case, the number of dyed cells represents the number of dead cells.
as §4, §5

Data set [4] deals with SW480. Briefly: Cytotoxicity crystal violet (CV) assay, SW480. In kind it is cell-based. As to conditions: CV assay (bottom value). The method, then: as §1, §2, §6, §4, §5
For another data set, the target named is T1, 5-LOX (Homo sapiens, UniProt P09917).
T1 construct: endogenous in cells; host or cells: intact polymorphonuclear leukocytes isolated from blood
T1 sequence (P09917 1-674): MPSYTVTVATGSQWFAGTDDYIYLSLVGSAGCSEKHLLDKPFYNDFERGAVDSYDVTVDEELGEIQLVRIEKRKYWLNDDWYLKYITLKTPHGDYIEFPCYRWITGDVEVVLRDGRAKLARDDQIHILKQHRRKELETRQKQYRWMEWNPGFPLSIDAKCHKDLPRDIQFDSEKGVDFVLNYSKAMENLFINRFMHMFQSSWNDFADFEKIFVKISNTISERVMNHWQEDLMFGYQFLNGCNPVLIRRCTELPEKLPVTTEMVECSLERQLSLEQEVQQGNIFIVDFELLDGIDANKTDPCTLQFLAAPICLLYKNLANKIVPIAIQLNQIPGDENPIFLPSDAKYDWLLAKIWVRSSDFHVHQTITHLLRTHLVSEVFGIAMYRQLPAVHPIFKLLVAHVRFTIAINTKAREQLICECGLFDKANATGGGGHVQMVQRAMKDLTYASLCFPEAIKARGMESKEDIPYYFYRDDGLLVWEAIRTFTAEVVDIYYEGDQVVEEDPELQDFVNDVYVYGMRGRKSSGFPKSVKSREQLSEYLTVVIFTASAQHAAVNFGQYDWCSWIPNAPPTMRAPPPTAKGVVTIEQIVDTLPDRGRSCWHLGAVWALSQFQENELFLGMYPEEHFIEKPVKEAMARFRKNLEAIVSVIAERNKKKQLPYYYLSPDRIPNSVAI
Description: Inhibition test: 5-LOX activity in intact polymorphonuclear leukocytes (arachidonic acid conversion, HPLC). In kind it is cell-based. As to conditions: 5-LOX-FLAP enzyme system, 15 min at 37° C., read-out: IC50 value (at concentration). The method, then:
The 5-LOX activity of the cells was established on the basis of the concentration of inhibitor.
In this process, intact polymorphonuclear leukocytes were isolated from blood as specified in the known literature [C. Greiner et al., British Journal of Pharmacology, 2011, 164, 781-793]. The cells were grown on cell sheets until a confluence of 95% was reached, i.e. 95% of the cell sheets was covered with cells. Each cell sheet was then treated with 10 μl of a solution of the inhibitor at concentrations of 0.05 μM, 0.1 μM, 0.5 μM, 1 μM, 5 μM, 10 μM, 50 μM and 100 μM at 37° C. for 15 minutes. Each cell sheet was then treated with an arachidonic acid solution for 10 minutes. 10 μl of a 1:1 mixture of 2 mM of arachidonic acid and 250 μM of A23187 Ca^2+-ionophore solution in ethanol was used for this.
Conversion of a small amount of arachidonic acid is evidence of a strong inhibiting effect.

Data set [5] relates to HCT116. Description: Cytotoxicity MTT assay, HCT116. In kind it is cell-based. Particulars: MTT assay (top value). The method, then:
as §1, §2, §3, §4, §5

The nature of data set [6]: Solubility tests in ethanol and DMSO. In kind it is physicochemical. Particulars: solvent added until clear solution; for solubility: organic solvent or mixture, thermodynamic from solid. The method, then:
Solubility tests in ethanol and DMSO were carried out to determine the solubility. The amount of solvent required to obtain a clear solution was added to 4 mg of the compounds in an Eppendorf tube. The concentration of the solution was then determined on the basis of the mass of the compounds and the amount of solvent.

Data set [7] relates to A375. Description: Cytotoxicity crystal violet (CV) assay, A375. In kind it is cell-based. Particulars: CV assay (bottom value). As to the method:
as §1, §2, §6, §4, §5

Data set [8] has as its system SW480. Description: Cytotoxicity MTT assay, SW480. It is filed as cell-based. As to conditions: MTT assay (top value). As to the method:
as §1, §2, §3, §4, §5
On the technique in general: Tetrazolium assays rely on reduction of a dye to a coloured formazan, in cell work by metabolically active cells.

In data set [9] the test system is B16. Briefly: Cytotoxicity MTT assay, B16. It is filed as cell-based. As to conditions: MTT assay (top value). The method, then: as §1, §2, §3, §4, §5
Data set [10] relates to CT26CL25. Description: Cytotoxicity MTT assay, CT26CL25. In kind it is cell-based. As to conditions: MTT assay (top value). The method, then:
as §1, §2, §3, §4, §5

Data set [11] concerns B16. Briefly: Cytotoxicity crystal violet (CV) assay, B16. Particulars: CV assay (bottom value). In kind it is cell-based. The method, then:
as §1, §2, §6, §4, §5

The test system of data set [12] is primary fibroblasts (MRC-5). Briefly: Cytotoxicity MTT assay, MRC-5. In kind it is cell-based, human. The method, then: as §1, §2, §3, §4, §5
The subject of data set [13] is HCT116. Description: Cytotoxicity crystal violet (CV) assay, HCT116. In kind it is cell-based. Particulars: CV assay (bottom value). The method, then: as §1, §2, §6, §4, §5
Setting [14] is: MTT assay (top value), read-out: IC50 A375.

Values after ≈ are worked out from the molar mass of the structure shown. Like-named read-outs stand apart in the source and are kept apart here. A value given as a limit tells only on which side of the number the result lay.

With “1-(Quinolin-2-ylmethoxy)-1,7-dicarba-closo-dodecaborane(12) [Comparative Example 1]”, the IC50 in the data set with A375 [1] (setting [14]) was 50 µM; with CT26CL25 [3] it was over 50 µM; in the data set with SW480 [4] it was over 50 µM; on 5-LOX, 2300 nM; in the data set on HCT116 [5] it was over 50 µM; with A375 [7], over 50 µM. Besides, the IC50 in the data set on SW480 [8] is over 50 µM; in the data set with B16 [9] it was 47.4 µM; in the data set on CT26CL25 [10], over 50 µM; with B16 [11], 47.6 µM. Also, in [2], the “cytotoxicity towards cancer cell lines (in words)” value is listed as “insufficient cytotoxicity”. The “Solubility in DMSO” value in [6] (DMSO) was 432 mmol/L. The “Solubility in EtOH” value in [6] (ethanol) turned out to be 72 mmol/L.
“1-Quinolin-2-ylmethoxy-1,12-dicarba-closo-dodecaborane(12) [Comparative Example 3]”: the IC50 in the data set on A375 [1] (setting [14]) was 8.8 µM; in the data set on CT26CL25 [3], 50 µM; in [12] (single value in cell, unit inferred, top value = MTT assay, read-out: IC50 MRC-5) it was over 100 µM; on 5-LOX it was 1400 nM; in the data set with A375 [7] it was 26.9 µM; with SW480 [8], 29 µM. Moreover, the IC50 with B16 [9] was 45.7 µM; with HCT116 [13], over 50 µM; in the data set on CT26CL25 [10] it was 35 µM; in the data set with B16 [11], 46 µM. For the same compound, the “Solubility in DMSO” value in [6] (DMSO) was found to be 208.3 mmol/L. The “Solubility in EtOH” value in data set [6] (ethanol) is 86.8 mmol/L.
As for “1-(7-Thiomethylquinolin-2-yl-1,7-dicarba-closo-dodecaboran(12)yl)-hexan-1-ol [Embodiment 5]”, the IC50 in the data set on A375 [1] (read-out: IC50 value for A375 cancer cells) was 8 µM; with CT26CL25 [3], 50 µM; in data set [12] (read-out: IC50 value for healthy cells (MRC-5)) it was 82 µM; in the data set with SW480 [4] it was over 50 µM; at 5-LOX, 2500 nM; in the data set on HCT116 [5], 45 µM. Moreover, the IC50 is 30.5 µM in the data set on A375 [7]; 33.1 µM in the data set on SW480 [8]; 50 µM with B16 [9]; over 50 µM with HCT116 [13]; 46 µM in the data set on CT26CL25 [10]; over 50 µM in the data set with B16 [11]. Also, the “selectiveness between healthy cells and cancer cells” value in data set [12] (IC50 for healthy cells (MRC-5) divided by IC50 for cancer cells (A375)) was determined as 10.2. Also, the “Solubility in DMSO” value in data set [6] (DMSO) was 953.9 mmol/L. The “Solubility in EtOH” value in data set [6] (ethanol) was 238.5 mmol/L.
As for “1-((7-Quinolin-2-ylmethoxy)-1,7-dicarba-closo-dodecaboran(12)yl)-hexan-1-ol [Embodiment 3]”, the “cytotoxicity towards cancer cell lines (in words)” value in data set [2] is “considerably higher cytotoxicity”. In addition, the IC50 on 5-LOX was determined as 1400 nM. Further, the “Solubility in DMSO” value in [6] (DMSO) came to 208.3 mmol/L. For the same compound, the “Solubility in EtOH” value in data set [6] (ethanol) is 86.8 mmol/L.
`CCCCCC(O)c1cccc(OCc2ccc3ccccc3n2)c1` (stereo not drawn) [Rev-5901, reference compound]: the IC50 with A375 [1] (Homo sapiens, A-375, MTT assay (top value), read-out: IC50 A375) is 25 µM; with A375 [1] (Homo sapiens, A-375, depending on the method of analysis used (MTT/CV), read-out: IC50 values towards melanoma cancer cell line A375) it was 25 to 50 µM; in the data set on CT26CL25 [3] it was over 50 µM; in data set [12] (Homo sapiens, MRC5, MTT assay (top value), healthy cells, read-out: IC50 MRC-5), 70.1 µM; in [12] (Homo sapiens, MRC5, read-out: IC50 value for healthy cells (MRC-5)), 70 µM; in the data set on SW480 [4] (Homo sapiens, SW480) it was over 50 µM. Besides, the IC50 in the data set with HCT116 [5] (Homo sapiens, HCT-116) stood at 50 µM; in the data set with A375 [7] (Homo sapiens, A-375) it was 46.5 µM; with SW480 [8] (Homo sapiens, SW480), 50 µM; with B16 [9] (Mus musculus, B16) it was 27.6 µM; in the data set with HCT116 [13] (Homo sapiens, HCT-116), 50 µM; in the data set on CT26CL25 [10] it was 28.1 µM. The compound further displayed an IC50 in the data set on B16 [11] (Mus musculus, B16) of 45 µM. Further, the solubility in data set [6] (DMSO, read-out: Solubility in DMSO) is 29.8 mM (≈ 10000 µg/mL); in data set [6] (ethanol, read-out: Solubility in EtOH), 29.7 mM (≈ 9960 µg/mL).
Turning to “1-(Quinolin-2-ylmethyl)thio-1,7-dicarba-closo-dodecaborane(12) [Comparative Example 2]”, the IC50 is 30 µM in the data set on A375 [1] (setting [14]); over 50 µM in the data set on CT26CL25 [3]; over 50 µM in the data set with SW480 [4]; 5800 nM on 5-LOX; over 50 µM in the data set with HCT116 [5]; 34.8 µM with A375 [7]. In addition, the IC50 in the data set with B16 [9], in the data set with HCT116 [13], in the data set on CT26CL25 [10] and in the data set with B16 [11] was over 50 µM in each case. In data set [2], the “cytotoxicity towards cancer cell lines (in words)” value is recorded as “insufficient cytotoxicity”. The “Solubility in DMSO” value in [6] (DMSO) was 600 mmol/L. Besides, the “Solubility in EtOH” value in [6] (ethanol) was 67 mmol/L.

A word on the solubility: it is the dissolved amount per volume that the medium holds.

(Values after patent US10774097B2, “Boron compounds as inhibitors of lipoxygenase and the lipoxygenase pathway, and preparation and use thereof” (UNIVERSITÄT LEIPZIG, priority 2015, dated 2020).)
